Assay results taken from ChEMBL document CHEMBL1148644, “Human PEPT1 pharmacophore distinguishes between dipeptide transport and binding” (J Med Chem, 2006).
Where a SMILES comes first, the peptide text is derived from it. [ ]: non-standard residue; d: D form. Tic = O=C(O)[C@@H]1Cc2ccccc2CN1

How the values were obtained:
[1] = target: T1, Solute carrier family 15 member 1 (Homo sapiens, UniProt P46059); experiment: Binding affinity to human PEPT1 assessed as inhibition of [14C]Gly-Sar uptake in MDCK cells; type: functional, cell-based
T1 sequence (P46059 whole entry): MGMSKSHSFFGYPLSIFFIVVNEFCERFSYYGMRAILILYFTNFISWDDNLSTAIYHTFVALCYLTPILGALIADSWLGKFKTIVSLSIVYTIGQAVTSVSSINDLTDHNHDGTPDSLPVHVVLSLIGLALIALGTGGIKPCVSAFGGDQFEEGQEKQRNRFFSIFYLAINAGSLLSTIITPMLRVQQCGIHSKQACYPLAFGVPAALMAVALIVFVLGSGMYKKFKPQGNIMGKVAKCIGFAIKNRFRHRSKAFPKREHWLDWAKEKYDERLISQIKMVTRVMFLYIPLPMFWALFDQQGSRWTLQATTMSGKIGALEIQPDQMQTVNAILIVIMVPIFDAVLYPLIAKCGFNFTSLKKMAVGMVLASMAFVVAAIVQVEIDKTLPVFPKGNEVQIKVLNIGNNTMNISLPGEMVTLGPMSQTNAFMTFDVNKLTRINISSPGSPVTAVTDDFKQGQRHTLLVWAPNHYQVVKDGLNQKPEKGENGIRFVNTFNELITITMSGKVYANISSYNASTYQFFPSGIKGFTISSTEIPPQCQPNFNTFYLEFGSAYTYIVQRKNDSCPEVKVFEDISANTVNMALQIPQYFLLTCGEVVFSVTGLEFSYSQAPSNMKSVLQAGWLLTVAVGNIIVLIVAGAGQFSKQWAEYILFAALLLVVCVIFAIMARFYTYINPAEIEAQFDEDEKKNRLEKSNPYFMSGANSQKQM

[2] = target: T1, Solute carrier family 15 member 1; experiment: Activation of human PEPT1 expressed in MDCK cells; type: functional, cell-based

Row | SMILES | IC50 ([1]; mdck) | EC50 [2] | IC50 ([1]; read-out: IC50)
1 | N[C@@H](Cc1c[nH]cn1)C(=O)N[C@@H](Cc1c[nH]c2ccccc12)C(=O)O |  | 190 µM | 950 µM
2 | C[C@H](NC(=O)[C@@H](N)Cc1ccccc1)C(N)=O |  | 850 µM | 2990 µM
3 | C[C@H](NC(=O)[C@@H](N)Cc1ccc(O)cc1)C(=O)O |  | 100 µM | 110 µM
4 | NC(=O)CNC(=O)[C@@H](N)Cc1ccc(O)cc1 | Not Active |  | 
5 | N[C@@H](Cc1c[nH]cn1)C(=O)N[C@@H](Cc1c[nH]cn1)C(=O)O |  | 370 µM | 400 µM
6 | NCC(=O)NCC(=O)NCC(=O)O |  | 580 µM | 1070 µM
7 | CC(C)C[C@H](NC(=O)CN)C(=O)O |  | 170 µM | 70 µM
8 | C[C@H](N)C(=O)N[C@@H](Cc1ccccc1)C(=O)O |  | 80 µM | 70 µM
9 | N[C@@H](Cc1ccc(O)cc1)C(=O)NCC(=O)O |  | 240 µM | 330 µM
10 | CC(=O)N[C@@H](Cc1ccccc1)C(=O)N[C@@H](Cc1ccc(O)cc1)C(N)=O (Ac-Phe-Tyr-NH2) | Not Active |  | 
11 | C[C@H](N)C(=O)N[C@@H](C)C(=O)O (H-Ala-Ala-OH) |  | 80 µM | 250 µM
12 | C[C@H](N)C(=O)N[C@@H](Cc1c[nH]c2ccccc12)C(=O)O (H-Ala-Trp-OH) |  | 80 µM | 260 µM
13 | C[C@H](N)C(=O)N[C@@H](Cc1ccc(O)cc1)C(=O)O (H-Ala-Tyr-OH) |  | 60 µM | 170 µM
14 | N[C@@H](CC(=O)O)C(=O)NCC(=O)O (H-Asp-Gly-OH) |  | 440 µM | 810 µM
15 | N[C@@H](CC(=O)O)C(=O)N[C@@H](Cc1c[nH]c2ccccc12)C(=O)O (H-Asp-Trp-OH) |  | 470 µM | 1310 µM
16 | CC(C)[C@H](NC(=O)[C@@H](N)CC(=O)O)C(=O)O (H-Asp-Val-OH) |  | 690 µM | 310 µM
17 | NCC(=O)NCC(=O)NCC(=O)NCC(=O)O (H-GGGG-OH) | Not Active |  | 
18 | N[C@@H](CCC(=O)O)C(=O)NCC(=O)O (H-Glu-Gly-OH) |  | 510 µM | 390 µM
19 | NCC(=O)N[C@@H](CC(=O)O)C(=O)O (H-Gly-Asp-OH) |  | 550 µM | 380 µM
20 | NCC(=O)NCC(=O)NCC(N)=O (H-Gly-Gly-Gly-NH2) | Not Active |  | 
21 | NCC(=O)NCC(=O)O (H-Gly-Gly-OH) |  | 480 µM | 820 µM

Row | SMILES | IC50 ([1]; mdck) | EC50 [2] | IC50 ([1]; read-out: IC50)
22 | NCC(=O)N[C@@H](Cc1c[nH]cn1)C(=O)O (H-Gly-His-OH) |  | 400 µM | 810 µM
23 | CC(C)C[C@H](NC(=O)CN)C(=O)NCC(=O)O (H-Gly-Leu-Gly-OH) |  | 210 µM | 240 µM
24 | CC(C)C[C@H](NC(=O)CN)C(=O)N[C@@H](Cc1ccccc1)C(=O)O (H-Gly-Leu-Phe-OH) |  | 280 µM | 980 µM
25 | NCC(=O)N[C@@H](Cc1ccccc1)C(N)=O (H-Gly-Phe-NH2) | Not Active |  | 
26 | NCC(=O)N[C@@H](Cc1ccccc1)C(=O)O (H-Gly-Phe-OH) |  | 130 µM | 170 µM
27 | NCC(=O)N[C@@H](Cc1c[nH]c2ccccc12)C(=O)O (H-Gly-Trp-OH) |  | 330 µM | 520 µM
28 | NCC(=O)N[C@@H](Cc1ccc(O)cc1)C(N)=O (H-Gly-Tyr-NH2) | Not Active |  | 
29 | NCC(=O)N[C@@H](Cc1ccc(O)cc1)C(=O)O (H-Gly-Tyr-OH) |  | 140 µM | 120 µM
30 | N[C@@H](Cc1c[nH]cn1)C(=O)NCC(=O)O (H-His-Gly-OH) |  | 280 µM | 340 µM
31 | N[C@@H](Cc1ccccc1)C(=O)NCC(=O)O (H-Phe-Gly-OH) |  | 110 µM | 170 µM
32 | NC(=O)[C@H](Cc1ccc(O)cc1)NC(=O)[C@@H](N)Cc1ccccc1 (H-Phe-Tyr-NH2) |  | 30 µM | 20 µM
33 | O=C(O)C[C@H](NC(=O)[C@@H]1CCCN1)C(=O)O (H-Pro-Asp-OH) |  | > 5000 µM | 9160 µM
34 | O=C(O)CC[C@H](NC(=O)[C@@H]1CCCN1)C(=O)O (H-Pro-Glu-OH) |  | > 5000 µM | 12300 µM
35 | O=C(O)CNC(=O)[C@@H]1CCCN1 (H-Pro-Gly-OH) |  |  | > 16000 µM
36 | CC(C)C[C@H](NC(=O)[C@@H]1CCCN1)C(=O)O (H-Pro-Leu-OH) |  | 250 µM | 620 µM
37 | N[C@@H](Cc1c[nH]c2ccccc12)C(=O)N[C@@H](Cc1c[nH]c2ccccc12)C(=O)O (H-Trp-Trp-OH) |  |  | 250 µM
38 | N[C@@H](Cc1c[nH]c2ccccc12)C(=O)N[C@@H](Cc1ccc(O)cc1)C(=O)O (H-Trp-Tyr-OH) |  |  | 80 µM
39 | N[C@@H](Cc1ccc(O)cc1)C(=O)N[C@@H](Cc1c[nH]c2ccccc12)C(=O)O (H-Tyr-Trp-OH) |  |  | 100 µM
40 | NC(=O)[C@H](Cc1ccc(O)cc1)NC(=O)[C@@H](N)Cc1ccc(O)cc1 (H-Tyr-Tyr-NH2) |  |  | 9110 µM
41 | NC(=O)[C@@H]1Cc2ccccc2CN1C(=O)[C@@H](N)Cc1ccc(O)cc1 (H-Tyr-[Tic]-NH2) | Not Active |  | 

Other lines, results leading:

Row | IC50 ([1]; mdck) | EC50 [2] | IC50 ([1]; read-out: IC50) | SMILES
42 | Not Active |  |  | NCCC[C@H](NC(=O)[C@@H](N)CCCN)C(=O)O
43 |  | 190 µM | 390 µM | NCCCC[C@H](N)C(=O)N1CCC[C@@H]1C(=O)O
44 |  |  | 10900 µM | NCCCC[C@H](NC(=O)[C@@H](N)CCCCN)C(=O)O
45 |  | 230 µM | 450 µM | C[C@H](N)C(=O)N[C@@H](CC(=O)O)C(=O)O (H-Ala-Asp-OH)
46 |  | 220 µM | 280 µM | C[C@H](N)C(=O)N[C@@H](CCCCN)C(=O)O (H-Ala-Lys-OH)
47 |  |  | 7310 µM | NC(N)=NCCC[C@H](NC(=O)[C@@H](N)CCCN=C(N)N)C(=O)O (H-Arg-Arg-OH)
48 |  | 270 µM | 390 µM | NC(N)=NCCC[C@H](N)C(=O)NCC(=O)O (H-Arg-Gly-OH)
49 |  |  | 8110 µM | NCCCC[C@H](NC(=O)[C@@H](N)CCCN=C(N)N)C(=O)O (H-Arg-Lys-OH)
50 |  | 990 µM | 630 µM | N[C@@H](CC(=O)O)C(=O)N[C@@H](CC(=O)O)C(=O)O (H-Asp-Asp-OH)
51 |  | 100 µM | 150 µM | NC(=O)CC[C@H](NC(=O)[C@@H](N)CCC(N)=O)C(=O)O (H-Gln-Gln-OH)
52 |  | 420 µM | 510 µM | NC(=O)CC[C@H](N)C(=O)N[C@@H](CCC(=O)O)C(=O)O (H-Gln-Glu-OH)
53 |  | 1000 µM | 620 µM | N[C@@H](CCC(=O)O)C(=O)N[C@@H](CCC(=O)O)C(=O)O (H-Glu-Glu-OH)
54 |  | 310 µM | 720 µM | NCCCC[C@H](NC(=O)[C@@H](N)CCC(=O)O)C(=O)O (H-Glu-Lys-OH)
55 |  | 1100 µM | 650 µM | NCC(=O)N[C@@H](CCC(=O)O)C(=O)O (H-Gly-Glu-OH)
56 |  | 750 µM | 1250 µM | NCCCC[C@H](NC(=O)CN)C(=O)O (H-Gly-Lys-OH)
57 |  |  | 7200 µM | NCCCC[C@H](N)C(=O)N[C@@H](CCCN=C(N)N)C(=O)O (H-Lys-Arg-OH)
58 |  | 530 µM | 820 µM | NCCCC[C@H](N)C(=O)N[C@@H](CCC(=O)O)C(=O)O (H-Lys-Glu-OH)
59 |  | 320 µM | 380 µM | NCCCC[C@H](N)C(=O)NCC(=O)O (H-Lys-Gly-OH)
60 |  |  | 660 µM | NCCCC[C@H](N)C(=O)N[C@@H](Cc1c[nH]c2ccccc12)C(=O)O (H-Lys-Trp-OH)
61 |  | 140 µM | 250 µM | CC(C)[C@H](NC(=O)[C@@H](N)CCCCN)C(=O)O (H-Lys-Val-OH)
62 |  |  | > 16000 µM | NCCCC[C@H](NC(=O)[C@@H]1CCCN1)C(=O)O (H-Pro-Lys-OH)
